Data: PubChem BioAssay (NCI)
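In this assay, cells in 96-well plates receive the compound at five concentrations for 48 hours. Endpoints are linearly interpolated between the surrounding concentrations. The concentration for full growth arrest is given as TGI.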

Experiments:
Test in all cases: NCI-60 cell line screen, 48 h
[1] = system: HCT-15 colon
[2] = system: SNB-75 CNS
[3] = system: SK-OV-3 ovarian
[4] = system: SF-268 CNS
[5] = system: SF-295 CNS
[6] = system: ACHN renal
[7] = system: HT29 colon
[8] = system: UO-31 renal
[9] = system: OVCAR-8 ovarian
[10] = system: DU-145 prostate
[11] = system: HOP-92 NSCLC
[12] = system: IGROV1 ovarian
[13] = system: MALME-3M melanoma
[14] = system: MDA-N
[15] = system: M14 melanoma
[16] = system: OVCAR-4 ovarian
[17] = system: SK-MEL-28 melanoma
[18] = system: CAKI-1 renal
[19] = system: LOX IMVI melanoma
[20] = system: NCI/ADR-RES ovarian
[21] = system: RXF 393 renal
[22] = system: SK-MEL-5 melanoma
[23] = system: MCF7 breast
[24] = system: SN12C renal
[25] = system: CCRF-CEM leukemia
[26] = system: MDA-MB-435
[27] = system: PC-3 prostate
[28] = system: SF-539 CNS
[29] = system: SR leukemia
[30] = system: HL-60(TB) leukemia
[31] = system: RPMI-8226 leukemia
[32] = system: TK-10 renal
[33] = system: KM12 colon
[34] = system: UACC-62 melanoma
[35] = system: NCI-H23 lung
[36] = system: A549 NSCLC
[37] = system: COLO 205 colon
[38] = system: K-562 leukemia
[39] = system: OVCAR-5 ovarian
[40] = system: HCC-2998 colon
[41] = system: MDA-MB-231 breast
[42] = system: HCT-116 colon
[43] = system: HS 578T breast
[44] = system: MOLT-4 leukemia
[45] = system: SK-MEL-2 melanoma
[46] = system: HOP-62 NSCLC
[47] = system: T-47D breast
[48] = system: BT-549 breast
[49] = system: EKVX NSCLC
[50] = system: OVCAR-3 ovarian
[51] = system: 786-0 renal
[52] = system: U251 CNS
[53] = system: UACC-257 melanoma
[54] = system: NCI-H460 lung
[55] = system: SW-620 colon
[56] = system: NCI-H226 lung
[57] = system: SNB-19 CNS
[58] = system: NCI-H522 lung

Compound `CCN(CCCl)c1cc(CN(C)C)cc(NC(=O)c2ccc(C(=O)Nc3cccc(N(CCCl)NN)c3)cc2)c1` has a TGI [1] of 4.89 µM, a TGI [2] of 0.775 µM and a TGI [3] of 13.3 µM. The TGI [4] was 20.5 µM, the TGI [5] was 12.5 µM and the TGI [6] was 0.233 µM. For the same compound, the TGI [7] was 0.0409 µM, the TGI [8] was 1.54 µM and the TGI [9] was 0.942 µM. The TGI [10] was 8.66 µM, the TGI [11] was 0.707 µM and the TGI [12] was 0.078 µM. It also gave a TGI [13] of 0.0939 µM, a TGI [14] of 0.169 µM and a TGI [15] of 0.294 µM. For the same compound, the TGI [16] was 0.364 µM, the TGI [17] was 0.505 µM and the TGI [18] was 0.203 µM. It also gave a TGI [19] of 0.034 µM, a TGI [20] of 12.7 µM and a TGI [21] of 0.142 µM. The TGI [22] was 0.174 µM, the TGI [23] was 0.171 µM and the TGI [24] was 1.16 µM. It also gave a TGI [25] of 0.115 µM, a TGI [26] of 0.0389 µM and a TGI [27] of 0.0661 µM. The TGI [28] was 0.56 µM, the TGI [29] was greater than 100 µM and the TGI [30] was 13.1 µM. For the same compound, the TGI [31] was 31.8 µM, the TGI [32] was 0.618 µM and the TGI [33] was 0.329 µM. It also gave a TGI [34] of 0.324 µM, a TGI [35] of 0.626 µM and a TGI [36] of 2.52 µM. For the same compound, the TGI [37] was 0.199 µM, the TGI [38] was 0.199 µM and the TGI [39] was 0.989 µM. It also gave a TGI [40] of 0.298 µM, a TGI [41] of 0.69 µM and a TGI [42] of 10.1 µM. For the same compound, the TGI [43] was 0.0711 µM, the TGI [44] was 0.0285 µM and the TGI [45] was 0.181 µM. It also gave a TGI [46] of 10.7 µM.
In the case of `COC(=O)[C@]1(c2cc3ccccc3[nH]2)CC2CNC1C1OC(C)(C)OC21` (stereo partly drawn), the TGI [1] is reported as greater than 100 µM, the TGI [47] is reported as greater than 100 µM and the TGI [2] is reported as greater than 100 µM. For the same compound, the TGI [3] was greater than 100 µM, the TGI [4] was greater than 100 µM and the TGI [48] was greater than 100 µM. The TGI [49] was greater than 100 µM, the TGI [5] was greater than 100 µM and the TGI [6] was greater than 100 µM. For the same compound, the TGI [50] was greater than 100 µM, the TGI [7] was greater than 100 µM and the TGI [8] was greater than 100 µM. It also gave a TGI [9] greater than 100 µM, a TGI [10] greater than 100 µM and a TGI [11] greater than 100 µM. For the same compound, the TGI [12] was greater than 100 µM, the TGI [13] was greater than 100 µM and the TGI [14] was greater than 100 µM. For the same compound, the TGI [15] was greater than 100 µM, the TGI [16] was greater than 100 µM and the TGI [51] was greater than 100 µM. The TGI [17] was greater than 100 µM, the TGI [18] was greater than 100 µM and the TGI [19] was greater than 100 µM. It also gave a TGI [20] greater than 100 µM, a TGI [21] greater than 100 µM and a TGI [52] greater than 100 µM. It also gave a TGI [22] greater than 100 µM, a TGI [23] greater than 100 µM and a TGI [24] greater than 100 µM. It also gave a TGI [25] greater than 100 µM, a TGI [26] greater than 100 µM and a TGI [53] greater than 100 µM. The TGI [27] was greater than 100 µM, the TGI [54] was greater than 100 µM and the TGI [28] was greater than 100 µM. It also gave a TGI [29] greater than 100 µM, a TGI [55] greater than 100 µM and a TGI [30] greater than 100 µM. The TGI [31] was greater than 100 µM, the TGI [32] was greater than 100 µM and the TGI [33] was greater than 100 µM. The TGI [34] was greater than 100 µM, the TGI [35] was greater than 100 µM and the TGI [36] was greater than 100 µM. The TGI [37] was greater than 100 µM, the TGI [38] was greater than 100 µM and the TGI [56] was greater than 100 µM. The TGI [39] was greater than 100 µM, the TGI [40] was greater than 100 µM and the TGI [57] was greater than 100 µM. It also gave a TGI [41] greater than 100 µM, a TGI [42] greater than 100 µM and a TGI [44] greater than 100 µM. The TGI [58] was greater than 100 µM, the TGI [45] was greater than 100 µM and the TGI [46] was greater than 100 µM.
